Earlier results on one molecule are cited in patent US20050176010A1, “Regulation of human transient receptor potential channel” (Bayer HealthCare AG, priority 2002, published 2005).

Each structure is given as a SMILES string.

For series [1], the target named is cold- and menthol-sensitive receptor (CMR1) (Rattus norvegicus, UniProt Q8R455). The following applies: McKemy et al., Nature 2002.
For another series, the target named is mouse TRPM8 (Mus musculus, UniProt Q8R4D5). Conditions: Peier et al., Cell 2002.
Chain of mouse TRPM8 (Q8R4D5 whole entry): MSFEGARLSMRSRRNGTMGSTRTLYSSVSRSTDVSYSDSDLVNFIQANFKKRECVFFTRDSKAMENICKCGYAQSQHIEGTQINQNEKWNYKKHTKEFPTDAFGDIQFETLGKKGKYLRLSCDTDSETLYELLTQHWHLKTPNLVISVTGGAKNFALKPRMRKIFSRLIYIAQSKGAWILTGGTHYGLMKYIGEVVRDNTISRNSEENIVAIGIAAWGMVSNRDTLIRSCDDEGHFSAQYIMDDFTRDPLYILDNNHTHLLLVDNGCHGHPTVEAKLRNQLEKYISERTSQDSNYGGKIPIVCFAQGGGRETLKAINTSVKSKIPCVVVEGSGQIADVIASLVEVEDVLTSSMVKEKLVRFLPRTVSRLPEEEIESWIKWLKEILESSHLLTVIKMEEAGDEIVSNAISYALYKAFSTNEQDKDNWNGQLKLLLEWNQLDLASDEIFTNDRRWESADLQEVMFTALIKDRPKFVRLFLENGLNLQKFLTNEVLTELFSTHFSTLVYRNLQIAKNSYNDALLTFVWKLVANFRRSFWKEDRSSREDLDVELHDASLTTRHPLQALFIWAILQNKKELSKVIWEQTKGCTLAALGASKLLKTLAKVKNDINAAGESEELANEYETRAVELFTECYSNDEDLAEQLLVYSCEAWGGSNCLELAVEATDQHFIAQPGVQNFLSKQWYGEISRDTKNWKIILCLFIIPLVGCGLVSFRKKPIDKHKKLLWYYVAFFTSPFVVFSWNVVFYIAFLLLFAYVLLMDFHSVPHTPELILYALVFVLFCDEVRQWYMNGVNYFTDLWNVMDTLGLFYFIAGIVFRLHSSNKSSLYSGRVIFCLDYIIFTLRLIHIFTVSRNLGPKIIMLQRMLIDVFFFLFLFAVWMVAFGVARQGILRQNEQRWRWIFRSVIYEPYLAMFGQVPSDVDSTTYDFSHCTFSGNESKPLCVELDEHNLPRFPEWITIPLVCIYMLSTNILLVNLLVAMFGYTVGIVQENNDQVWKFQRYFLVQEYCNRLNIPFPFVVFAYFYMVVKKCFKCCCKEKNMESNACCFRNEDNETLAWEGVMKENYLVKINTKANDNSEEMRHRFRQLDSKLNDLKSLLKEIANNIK
Series [2] has as its system cold receptors. The following applies: animals; Lindstrom and Mazieres 1991, Mazieres et al. 1998.
In series [3] the test system is cold receptors. The following applies: all tested patients; Geirsson, J. Urol. 1993.

Chain of cold- and menthol-sensitive receptor (CMR1) (Q8R455 whole entry): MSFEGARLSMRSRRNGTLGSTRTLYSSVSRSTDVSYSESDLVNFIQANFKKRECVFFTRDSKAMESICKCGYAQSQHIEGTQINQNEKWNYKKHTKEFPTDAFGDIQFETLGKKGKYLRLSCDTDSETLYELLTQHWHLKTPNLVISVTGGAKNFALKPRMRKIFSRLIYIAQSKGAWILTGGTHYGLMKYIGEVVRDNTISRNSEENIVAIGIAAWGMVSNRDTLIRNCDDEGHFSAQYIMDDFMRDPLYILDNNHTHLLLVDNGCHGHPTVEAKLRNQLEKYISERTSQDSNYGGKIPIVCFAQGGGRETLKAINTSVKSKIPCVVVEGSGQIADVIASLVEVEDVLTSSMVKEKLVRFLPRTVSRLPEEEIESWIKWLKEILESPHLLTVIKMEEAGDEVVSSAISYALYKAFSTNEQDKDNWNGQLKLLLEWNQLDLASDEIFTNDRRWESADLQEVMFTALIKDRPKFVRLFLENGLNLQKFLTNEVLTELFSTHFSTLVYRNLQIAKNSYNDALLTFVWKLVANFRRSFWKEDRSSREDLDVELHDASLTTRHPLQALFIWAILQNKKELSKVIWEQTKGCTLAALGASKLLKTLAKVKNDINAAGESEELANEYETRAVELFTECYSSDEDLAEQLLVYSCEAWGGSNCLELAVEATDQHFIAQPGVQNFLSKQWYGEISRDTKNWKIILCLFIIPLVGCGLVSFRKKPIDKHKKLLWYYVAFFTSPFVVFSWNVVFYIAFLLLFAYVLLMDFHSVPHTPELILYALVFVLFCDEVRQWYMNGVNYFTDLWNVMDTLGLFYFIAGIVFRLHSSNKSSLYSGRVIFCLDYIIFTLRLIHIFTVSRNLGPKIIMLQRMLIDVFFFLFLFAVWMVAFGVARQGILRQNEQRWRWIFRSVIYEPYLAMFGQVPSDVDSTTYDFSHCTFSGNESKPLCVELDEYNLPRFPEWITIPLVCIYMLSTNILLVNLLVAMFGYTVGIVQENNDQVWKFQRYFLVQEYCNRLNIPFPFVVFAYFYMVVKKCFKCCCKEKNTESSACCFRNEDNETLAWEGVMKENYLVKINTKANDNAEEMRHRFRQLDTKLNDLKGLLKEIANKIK

`CC1CCC(C(C)C)C(O)C1` (stereo not shown) [menthol]: the “activation of the channel receptor CMR1” value in series [1] is “activated”. In addition, on mouse TRPM8, the “gating of the ion channel” value is “gated by cold stimuli and menthol”. Moreover, the “temperature response curve of the bladder cooling reflex” value with cold receptors [2] was “shifts the temperature response curve of the bladder cooling reflex towards higher temperatures”. For the same molecule, the “threshold temperature of the cooling reflex” value with cold receptors [3] is “shift of the threshold temperature of the cooling reflex towards a higher value”.
